Reference: patent US20250207167A1, “ASPERGILLUS SP. L14-OE::LAEA2 AND APPLICATION THEREOF IN PRODUCING CYCLIC TRIPEPTIDES” (Zhejiang University of Technology, priority 2023, published 2025)
Values after ≈ are worked out from the molar mass of the structure shown.

What was measured:
[1] = test system: Candida albicans ATCC 10231; experiment: Antifungal activity against Candida albicans (serial dilution MIC); type: cell-based; settings: 48 hours at 30° C., absorbance at 600 nm; for MIC: Candida albicans, ATCC10231
Protocol: Candida albicans ATCC 10231, as an indicator strain, is activated for 3 days at 30° C. on the Sabouraud solid medium, and then amplified for 2 days at 30° C. and 180 rpm in the Sabouraud liquid medium to obtain an indicator liquid for antifungal activity testing.
An outermost ring of a 96-well plate is filled with 100 μL of the Sabouraud liquid medium for blank culture to prevent contamination; a first well of the 96-well plate is added with samples and the indicator liquid, with a total solution volume of 200 μL and a sample concentration of 128 μg/mL in the first well. A “serial dilution method” is used to achieve sample concentrations of 64, 32, 16, 8, 4, 2, 1, 0.5, and 0.25 μg/mL respectively in subsequent wells. Each sample has three parallel controls, and is incubated for 48 hours at 30° C. Then, the absorbance of the indicator liquid is measured at 600 nm using a microplate reader, and minimum inhibitory concentrations (MIC) of the compounds are recorded. The samples are the compound I, the compound II, and the compound III, with Amphotericin B as the control.

[2] = test system: human brain glioma cell line (HEB); experiment: SRB tumor cell growth inhibition, HEB; type: cell-based; settings: 72 h, 3 days, read-out: human brain glioma cell line HEB growth inhibition rate %
Source text: (§1) A Sulforhodamine B (SRB) colorimetric method is used to perform in vitro growth inhibition experiments on tumor cells with the isolated monomeric compounds A human brain glioma cell line (HEB) and a human hepatocellular carcinoma cell line (Hep-G2) both from Cell Resource Center, Institute of Basic Medical Sciences ([…]), China. Tumor cells in a logarithmic growth phase are selected and digested with trypsin followed by adjusting a cell concentration to 2×10^4 cells/mL with a Roswell Park memorial institute 1640 (RPMI 1640) medium containing 10% fetal bovine serum to obtain a tumor cell suspension. Sample solutions: the compound I, the compound II, and the compound III prepared in the embodiment 3 are separately added with DMSO to prepare 200 μM of the sample solutions. Control antibiotic solution: The antibiotic 5-fluorouracil (5-FU) is diluted with DMSO to prepare 100 μM of the control antibiotic solution. The tumor cell suspensions in Table 11 are inoculated into a 96-well culture plate at 190 μL per well, and then incubated at 37° C. with 5% carbon dioxide (CO2) for 24 hours. The culture wells are divided into drug wells, control wells, and blank wells. […] The blank wells are added with 10 μL of the RPMI 1640 medium containing 10% fetal bovine serum and an equal volume of DMSO as a solvent. The 96-well culture plate is then at 37° C. with 5% CO2 for incubation for 3 days followed by removing culture medium. Then, each well of the 96-well culture plate is slightly added with 100 μL of the 50% TCA solution pre-cooled at 4° C., and then allowed to stand for 5 min, followed by moving the 96-well culture plate to 4° C. for 1 hour to fix cells to obtain a cell-fixed plate. After discarding the fixing solution from the cell-fixed plate, the wells of the cell-fixed plate are washed five times with distilled water to remove TCA and then air-dried for 1 hour to obtain a first dried plate. Each well of the first dried plate is added with 80 μL of the 0.4% SRB solution for staining at room temperature for 30 min to obtain a stained plate. After discarding the staining solution of the stained plate, the stained plate is washed five times by 1% acetic acid aqueous solution to fully remove unbound SRB and then air-dried for 1 hour to obtain a second dried plate. Each well of the second dried plate is added with 150 μL of the 10 mM Tris-based solution for dissolving, and then oscillated for 5 min on a mini shaker (Mini shaker Kylin-Bell Lab instruments) to obtain an oscillated plate. Samples from each well of the oscillated plate are taken and an OD value at 570 nm is measured for each sample by using an M5 microplate reader.

[3] = test system: human hepatocellular carcinoma cell line (Hep-G2); experiment: SRB tumor cell growth inhibition, Hep-G2; type: cell-based; settings: HepG2, 72 h, 3 days, read-out: human hepatocellular carcinoma cell line Hep-G2 growth inhibition rate %
Source text: as §1

[4] = DPPH antioxidant activity test; type: biochemical; settings: for Antioxidant activity IC50 value: DPPH scavenging, 37° C. half an hour
Protocol: 1 mg of solid DPPH is dissolved in 24 mL of methanol and then ultrasonicated for 5 min, followed by shaking thoroughly to obtain DPPH solution to ensure uniformity throughout the DPPH solution. 1 mL of the DPPH solution is taken and diluted by adding 0.5 mL of 95% methanol to obtain a diluted solution with an absorbance in a range of 0.6-1.0. The samples are added with methanol to prepare 1 mg/mL of sample solutions. The sample solutions are separately added to the DPPH solution while mixing continuously with a small start amount to obtain mixed solutions and an addition amount of the sample solutions gradually increases. Solution decolorization is observed when adding the sample solutions. When color of the mixed solutions has essentially faded, a maximum amount of the added sample solution is recorded. Based on the maximum amount, five additional amounts are set in an arithmetic sequence moving backwards. A final measurement is performed according to the arithmetic sequence, and for each amount, three parallel data points are measured. An absorbance value (A value) at each amount may be measured after placing the mixed solutions in a 37° C. oven for half an hour. An experimental antioxidant concentration serves as an x-axis and a scavenging rate serves as a y-axis, then a linear regression equation is calculated. 50% scavenging rate is substituted into the linear regression equation to obtain a corresponding x-axis value, which is a half-maximal inhibitory concentration (IC50) value. The samples are the compound I, the compound II, and the compound III, with vitamin C (Vc) as the control. The scavenging rate=((A0−A)/A0)×100; where A0 represents a value before adding the sample solutions, and A represents a value after adding the sample solutions.

[5] = according to literature searches; cited from earlier work
[6] = test system: silkworms and American moths; settings: against silkworms and American moths; literature; cited from earlier work
[7] = test system: Candida albicans; settings: reported in literature; cited from earlier work

C[C@@H]1[C@H](O)[C@@H](C)/C=C/C=C/C=C/C=C/C=C/C=C/C=C/[C@H](O[C@@H]2O[C@H](C)[C@@H](O)[C@H](N)[C@@H]2O)C[C@@H]2O[C@](O)(C[C@@H](O)C[C@@H](O)[C@H](O)CC[C@@H](O)C[C@@H](O)CC(=O)O[C@H]1C)C[C@H](O)[C@H]2C(=O)O [Amphotericin B, reference compound]
MIC value against the Candida albicans ATCC 10231 [1]: 2 µg/mL (≈ 2.16 µM)

O=c1[nH]cc(F)c(=O)[nH]1 [Compound 5-FU, 5-fluorouracil, reference compound]
inhibition at 5 µM ([2]; positive control, 5 μM): 69.5% | inhibition at 5 µM ([3]; positive control, 5 μM): 71.3%

C/C=C/C=C/C=C/C(=O)N[C@H]1CCCNC(=O)[C@H](C)N(C)C(=O)[C@H](C(C)C)N(C)C1=O [Compound I, aspochracin]
MIC [1]: > 128 µg/mL | antioxidant activity (in words) [4]: moderate antioxidant activity | Antioxidant activity IC50 value [4]: 420 µg/mL | inhibition at 10 µM [2]: -19.9% | inhibition at 10 µM [3]: -17.9% | mammalian toxicity [5]: extremely low mammalian toxicity | insecticidal activity [6]: recognized insecticidal activity

C/C=C/C=C/C=C/C(=O)N[C@H]1CCCNC(=O)[C@H](C)NC(=O)[C@H](C(C)C)N(C)C1=O [Compound II, JBIR-15]
MIC [1]: 32 µg/mL (≈ 76.5 µM) | antioxidant activity (in words) [4]: moderate antioxidant activity | Antioxidant activity IC50 value [4]: 400 µg/mL | inhibition at 10 µM [2]: -6.04% | inhibition at 10 µM [3]: 11.8% | anti-Candida albicans activity, minimum inhibitory concentration (MIC) [7]: 30 µg/mL

C/C=C/C=C/C=C/C(=O)N[C@H]1CCCCNC(=O)[C@H](C)N(C)C(=O)[C@H](C(C)C)N(C)C1=O [Compound III, sclerotiotide C]
MIC [1]: > 128 µg/mL | antioxidant activity (in words) [4]: moderate antioxidant activity | Antioxidant activity IC50 value [4]: 430 µg/mL | inhibition at 10 µM [2]: -13.7% | inhibition at 10 µM [3]: 21.1%

O=C1O[C@H]([C@@H](O)CO)C(O)=C1O [Vc, vitamin C, reference compound]
Antioxidant activity IC50 value [4]: 9 µg/mL
